Assay results as given in patent US20210355421A1, “DEVICES AND METHODS FOR PRODUCTION OF CELL AGGREGATES” (priority 2007, published 2021).
“Also recorded” adds a separate entry of the source.

Tests used:
hESC [1] = assay: aggregate formation from hESC cultured on Matrigel after BMP pre-differentiation; assay type: cell-based, human; details: 50 ng/mL BMP4 pre-differentiation, control population did not form aggregates
hESC [2] = assay: forced aggregation of hESC with or without ROCK inhibitor Y-27632; assay type: cell-based, human
Method: • 1. […] The precise degree of pre-differentiation that is optimal will vary with the cell line in question, exact maintenance techniques, etc. If EB coherence is still insufficient after treatment as above, pre-differentiation can be started earlier (i.e the duration increased) or (if using BMPs), BMP concentration can be increased. […] Prepare low-adsorbance well plates: • a) dispense 40 μL (for 96-well plates) or 25 μL (for 384-well plates) of 5% Pluronic acid in PBS into the plates • b) incubate 30 minutes at room temperature • c) remove pluronic acid solution by pipetting or by inverted centrifugation in the device described and illustrated in FIG. 1 or 2 for 1 minute at 240×g • 3. Prepare a single-cell suspension by treating the hESC culture with TrypIE for 5 minutes, and washing the cells off with X-Vivo10 • 4. Count cells, spin down and re-suspend to 1 million cells/mL in X-Vivo or other medium of interest. Cells may all derive from a single culture, or cells from different sources may be combined. • 5. […] In the absence of both, no aggregates were formed (N.D.—size not determined). […]

Row | Compound | stable aggregate formation after BMP4 pre-differentiation (hESC [1]) | aggregate size and symmetry (hESC [2]; 10 μM Y-27632, hESC cultured on Matrigel, 2,000 cells per well, without or with 48 hours pre-differentiation in serum-containing medium) | SISO-aggregate formation / aggregate stability (hESC [2]; 10 μM Y-27632 added to cell suspension immediately prior to dispensing, hESC on Matrigel in MEF-conditioned medium, without or with pre-differentiation)
1 | BMP4: bone morphogenetic protein used as growth factor for pre-differentiation | Aggregates formed from the pre-differentiated population |  | 
2 | C[C@@H](N)[C@H]1CC[C@H](C(=O)Nc2ccncc2)CC1 [Y-27632] |  | substantially increased aggregate size and symmetry; also recorded: size and symmetry of aggregates are improved | sizeable aggregates resulted
